According to ChEMBL document CHEMBL1201862, “PubChem BioAssay data set” (2004):
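These data come from cells grown in 96-well plates and exposed to compound for 48 hours at five concentrations. GI50 is the concentration that inhibits growth by half.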 Activity calls are given as the source filed them. Rule as the data show it: active = GI50 up to about 1.1 µM and inactive = higher.

Columns and labels:
Assay in all cases: inhibition of tumour cell growth, NCI panel, 48 h
A498 = system: A498
ACHN = system: ACHN
DLD-1 = system: DLD-1
HT-29 = system: HT-29
NCI-H23 = system: NCI-H23
NCI-H460 = system: NCI-H460
OVCAR-8 = system: OVCAR-8
SF-268 = system: SF-268
SF-539 = system: SF-539
SK-MEL-28 = system: SK-MEL-28
SK-MEL-5 = system: SK-MEL-5
SW-620 = system: SW-620
OVCAR-4 = system: OVCAR-4
RXF 393 = system: RXF 393
BT-549 = system: BT-549
DU-145 = system: DU-145
MCF7 = system: MCF7
MDA-MB-231 = system: MDA-MB-231
MDA-MB-435 = system: MDA-MB-435
PC-3 = system: PC-3

Measured: GI50

C#CCC1(C(=O)OCC)C(=O)c2ccccc2N(C)C1=O (stereo not drawn)
inactive: A498 67.5 µM | ACHN 93.5 µM | DLD-1 > 100 µM | HT-29 > 100 µM | NCI-H23 14.7 µM | NCI-H460 > 100 µM | OVCAR-8 > 100 µM | SF-268 58.7 µM | SF-539 > 100 µM | SK-MEL-28 > 100 µM | SK-MEL-5 70.3 µM | SW-620 > 100 µM

O=C(/C=C/c1ccc([N+](=O)[O-])cc1)c1ccc(NCc2nc3ccccc3[nH]2)cc1
inactive: A498 7.24 µM | ACHN 10.5 µM | DLD-1 3.97 µM | HT-29 3.44 µM | NCI-H23 3.75 µM | NCI-H460 2.22 µM | OVCAR-4 13.3 µM | OVCAR-8 2.68 µM | SF-268 5.71 µM | SF-539 2.84 µM | SK-MEL-28 13 µM | SK-MEL-5 5.18 µM | SW-620 2.25 µM

CCC(C)CN1C(=O)NC(Cc2ccccc2)C1=O (stereo not drawn)
inactive: ACHN > 100 µM | DLD-1 > 100 µM | HT-29 > 100 µM | NCI-H23 > 100 µM | NCI-H460 > 100 µM | OVCAR-8 > 100 µM | RXF 393 > 100 µM | SF-268 > 100 µM | SF-539 > 100 µM | SK-MEL-28 > 100 µM | SW-620 > 100 µM

COc1cccc(/C=N/[N-]C(=S)Nc2ccccc2)c1[O-].O.[Zn+2]
inactive: ACHN 39.8 µM | DLD-1 29 µM | HT-29 72.4 µM | NCI-H23 37.7 µM | NCI-H460 50.9 µM | OVCAR-4 23.5 µM | OVCAR-8 35.5 µM | RXF 393 35.9 µM | SF-268 47 µM | SF-539 66.4 µM | SK-MEL-28 > 100 µM | SK-MEL-5 61.1 µM | SW-620 56.4 µM

CC(NC(=O)C(NC(=O)C(NC(=O)C(F)(F)F)C(C)C)C(C)C)C(=O)Oc1c(Cl)c(Cl)c(Cl)c(Cl)c1Cl (stereo not drawn)
inactive: A498 > 100 µM | ACHN > 100 µM | BT-549 > 100 µM | DU-145 > 100 µM | HT-29 > 100 µM | MCF7 > 100 µM | MDA-MB-231 > 100 µM | MDA-MB-435 > 100 µM | NCI-H23 > 100 µM | NCI-H460 > 100 µM | OVCAR-4 > 100 µM | OVCAR-8 > 100 µM | PC-3 > 100 µM | RXF 393 > 100 µM | SF-268 > 100 µM | SF-539 > 100 µM | SK-MEL-28 > 100 µM | SK-MEL-5 > 100 µM | SW-620 > 100 µM

Cn1c2ccccc2n2c3ccccc3c(=O)c(C#N)c12
inactive: A498 18.3 µM | ACHN 2.91 µM | BT-549 43.2 µM | DU-145 12.6 µM | HT-29 4.53 µM | MCF7 10.1 µM | MDA-MB-231 13.9 µM | MDA-MB-435 71.8 µM | NCI-H23 8.24 µM | NCI-H460 3.23 µM | OVCAR-4 > 100 µM | OVCAR-8 3.96 µM | PC-3 22.8 µM | RXF 393 40.7 µM | SF-268 10.4 µM | SF-539 13 µM | SK-MEL-28 > 83.4 µM | SK-MEL-5 2.27 µM | SW-620 4.62 µM

CC(C)(C)c1cc(C(=O)/C=C/c2c(Cl)cccc2Cl)cc(C(C)(C)C)c1O
inactive: A498 27.2 µM | ACHN 14.7 µM | BT-549 17.4 µM | DU-145 23 µM | HT-29 10.2 µM | MCF7 8.34 µM | MDA-MB-231 10.9 µM | MDA-MB-435 15.5 µM | NCI-H23 16.1 µM | NCI-H460 7.46 µM | OVCAR-4 28.7 µM | OVCAR-8 18.9 µM | PC-3 11.4 µM | RXF 393 2.05 µM | SF-268 18.8 µM | SF-539 16.1 µM | SK-MEL-28 19.4 µM | SK-MEL-5 11.4 µM | SW-620 13.3 µM

NC(=O)c1nc[nH]c1/N=N/SCC(N)C(=O)O (stereo not drawn)
inactive: A498 > 100 µM | ACHN 13 µM | BT-549 > 90.8 µM | DU-145 5.11 µM | HT-29 > 100 µM | MCF7 97.7 µM | MDA-MB-231 6.04 µM | MDA-MB-435 33.1 µM | NCI-H23 > 78.9 µM | NCI-H460 12.7 µM | OVCAR-4 11.3 µM | OVCAR-8 5.74 µM | PC-3 15.7 µM | RXF 393 > 100 µM | SF-268 10.7 µM | SF-539 17.6 µM | SK-MEL-28 > 100 µM | SK-MEL-5 57 µM | SW-620 16.4 µM

OC1(c2ccc(Cl)cc2)c2c(c3ccccc3c3ccccc23)C2=NCCN21 (stereo not drawn)
inactive: A498 19.1 µM | ACHN 14.5 µM | BT-549 16.5 µM | DU-145 17.4 µM | HT-29 14.6 µM | MCF7 14.6 µM | MDA-MB-231 12 µM | MDA-MB-435 29.7 µM | NCI-H23 11.6 µM | NCI-H460 15.8 µM | OVCAR-4 3.43 µM | OVCAR-8 11.9 µM | PC-3 14.6 µM | RXF 393 11.4 µM | SF-268 10.6 µM | SF-539 11.2 µM | SK-MEL-28 18.3 µM | SK-MEL-5 29 µM | SW-620 12.6 µM

O=C(O)[C@@H](NS(=O)(=O)c1ccc(F)cc1)c1ccccc1
inactive: ACHN > 100 µM | DLD-1 > 100 µM | HT-29 > 100 µM | NCI-H23 > 100 µM | NCI-H460 > 100 µM | OVCAR-4 > 100 µM | OVCAR-8 > 100 µM | RXF 393 > 100 µM | SF-268 > 100 µM | SF-539 > 100 µM | SK-MEL-28 > 100 µM | SK-MEL-5 > 100 µM | SW-620 > 100 µM

C=CCc1cc(OC)c2c(c1)C(OC(C)=O)CC(c1ccc(OC)c(OC)c1)O2 (stereo not drawn)
inactive: ACHN > 100 µM | DLD-1 > 100 µM | HT-29 > 100 µM | NCI-H23 46.7 µM | NCI-H460 > 100 µM | OVCAR-4 > 100 µM | SF-268 > 100 µM | SF-539 47.4 µM | SK-MEL-28 > 100 µM | SK-MEL-5 > 100 µM | SW-620 > 100 µM

COc1cc(/N=C(\N)N=C(N)N)c2ncccc2c1
inactive: A498 > 100 µM | ACHN > 100 µM | BT-549 78.5 µM | DU-145 > 100 µM | HT-29 > 100 µM | MCF7 > 100 µM | MDA-MB-231 > 100 µM | MDA-MB-435 > 100 µM | NCI-H23 80.7 µM | NCI-H460 > 100 µM | OVCAR-4 > 100 µM | OVCAR-8 > 100 µM | PC-3 > 100 µM | RXF 393 > 100 µM | SF-268 98.2 µM | SF-539 46.8 µM | SK-MEL-28 > 100 µM | SK-MEL-5 39.9 µM | SW-620 > 100 µM

C=C(N=[N+]=[N-])c1cn(C2CC(O)C(CO)O2)c(=O)[nH]c1=O (stereo not drawn)
inactive: ACHN > 100 µM | DLD-1 > 100 µM | HT-29 > 100 µM | NCI-H23 > 100 µM | NCI-H460 > 100 µM | OVCAR-8 > 100 µM | RXF 393 > 100 µM | SF-539 > 100 µM | SK-MEL-28 > 100 µM | SK-MEL-5 > 100 µM | SW-620 > 100 µM
